System: PBMC cultures from HIV-1 infected subjects on cART
Test: Induced cytokines and chemokines in PBMC cultures from HIV-1 infected subjects on cART (multiplexed Luminex)
Format: cell-based, human
Details: for I-TAC Fold vs DMSO / IFN-α / IFN-α Fold vs DMSO / IFN-γ / IFN-γ Fold vs DMSO / IL-6 pg/ml / IL-8 pg/ml / IL-10 pg/ml / IL-18 pg/ml / IL-23 pg/ml / IL-1RA / IL-1RA Fold vs DMSO / IL-1β / IL-1β Fold vs DMSO / IL-6 Fold vs DMSO / IL-8 Fold vs DMSO / IL-10 Fold vs DMSO / IL-12p70 pg/ml / IL-12p70 Fold vs DMSO / IL-18 Fold vs DMSO / IL-23 Fold vs DMSO / IP-10 pg/ml / IP-10 Fold vs DMSO / MCP-1 pg/ml / MCP-1 Fold vs DMSO / MIP-1α / MIP-1α Fold vs DMSO / MIP-1β / MIP-1β Fold vs DMSO / MIP-3α / MIP-3α Fold vs DMSO / MMP-1 pg/ml / MMP-1 Fold vs DMSO / TNF-α / TNF-α Fold vs DMSO / GRO-α / GRO-α Fold vs DMSO / Granzyme B / Granzyme B Fold vs DMSO / I-TAC: day 2, geometric mean, 4 subjects
Description: To further characterize the immune modulatory effect of TLR8 agonists in cells from HIV-infected subjects, the production of secreted cytokines and chemokines was measured in PBMCs from 4 HIV-infected subjects on suppressive cART (anonymized participant IDs 180-183). PBMCs were purified, as described in Example 121, and immediately added to tissue culture plates pre-equilibrated at 37° C. with media containing DMSO (vehicle control) or with the TLR8 modulating compound Example 15 at concentrations ranging from 1.0 nM to 10.0 μM. On day 2 after treatment, cell-free culture supernatants were collected and frozen at −80 C for subsequent analysis. Frozen supernatants were thawed at room temperature, and the indicated cytokines and chemokines were quantified with a custom multiplexed xMAP Luminex® assay following the manufacturer's instructions (Thermo Fisher Scientific Inc., Grand Island, N.Y., custom-designed kit).
Data are expressed as geometric mean cytokine values (pg/ml) obtained from 4 subjects' PBMCs. Geometric mean fold-activation from three independent incubation samples for each condition. Fold (fold-activation) is calculated as a ratio of the concentration of cytokine detected in cell culture supernatants from agonist treated samples relative to DMSO treated samples

CCCC[C@H](CO)Nc1nc(N)nc2cccnc12 [Example 15]
I-TAC Fold vs DMSO (Ex 15 1000 nM): 2 fold | IFN-α (Ex 15 1000 nM): 6 pg/mL | IFN-α Fold vs DMSO (Ex 15 1000 nM): 3 fold | IFN-γ (Ex 15 1000 nM): 5693 pg/mL | IFN-γ Fold vs DMSO (Ex 15 1000 nM): 228 fold | IL-6 pg/ml (Ex 15 1000 nM): 22600 pg/mL | IL-8 pg/ml (Ex 15 1000 nM): 1565 pg/mL | IL-10 pg/ml (Ex 15 1000 nM): 3719 pg/mL | IL-18 pg/ml (Ex 15 1000 nM): 191 pg/mL | IL-23 pg/ml (Ex 15 1000 nM): 465 pg/mL | IL-1RA (Ex 15 1000 nM): 164731 pg/mL | IL-1RA Fold vs DMSO (Ex 15 1000 nM): 46 fold | IL-1β (Ex 15 1000 nM): 4735 pg/mL | IL-1β Fold vs DMSO (Ex 15 1000 nM): 1578 fold | IL-6 Fold vs DMSO (Ex 15 1000 nM): 290 fold | IL-8 Fold vs DMSO (Ex 15 1000 nM): 5 fold | IL-10 Fold vs DMSO (Ex 15 1000 nM): 219 fold | IL-12p70 pg/ml (Ex 15 1000 nM): 524 pg/mL | IL-12p70 Fold vs DMSO (Ex 15 1000 nM): 175 fold | IL-18 Fold vs DMSO (Ex 15 1000 nM): 11 fold | IL-23 Fold vs DMSO (Ex 15 1000 nM): 8 fold | IP-10 pg/ml (Ex 15 1000 nM): 741 pg/mL | IP-10 Fold vs DMSO (Ex 15 1000 nM): 3 fold | MCP-1 pg/ml (Ex 15 1000 nM): 1464 pg/mL | MCP-1 Fold vs DMSO (Ex 15 1000 nM): 22 fold | MIP-1α (Ex 15 1000 nM): 18689 pg/mL | MIP-1α Fold vs DMSO (Ex 15 1000 nM): 374 fold | MIP-1β (Ex 15 1000 nM): 415739 pg/mL | MIP-1β Fold vs DMSO (Ex 15 1000 nM): 340 fold | MIP-3α (Ex 15 1000 nM): 1085 pg/mL | MIP-3α Fold vs DMSO (Ex 15 1000 nM): 42 fold | MMP-1 pg/ml (Ex 15 1000 nM): 317 pg/mL | MMP-1 Fold vs DMSO (Ex 15 1000 nM): 3 fold | TNF-α (Ex 15 1000 nM): 34880 pg/mL | TNF-α Fold vs DMSO (Ex 15 1000 nM): 1661 fold | GRO-α (Ex 15 3000 nM): 418 pg/mL | GRO-α Fold vs DMSO (Ex 15 3000 nM): 18 fold | Granzyme B (Ex 15 3000 nM): 857 pg/mL | Granzyme B Fold vs DMSO (Ex 15 3000 nM): 4 fold | I-TAC (Ex 15 3000 nM): 98 pg/mL | I-TAC Fold vs DMSO (Ex 15 3000 nM): 2 fold | IFN-α (Ex 15 3000 nM): 6 pg/mL | IFN-α Fold vs DMSO (Ex 15 3000 nM): 3 fold | IFN-γ (Ex 15 3000 nM): 3586 pg/mL | IFN-γ Fold vs DMSO (Ex 15 3000 nM): 143 fold | IL-6 pg/ml (Ex 15 3000 nM): 15198 pg/mL | IL-8 pg/ml (Ex 15 3000 nM): 1139 pg/mL | IL-10 pg/ml (Ex 15 3000 nM): 4747 pg/mL | IL-18 pg/ml (Ex 15 3000 nM): 308 pg/mL | IL-23 pg/ml (Ex 15 3000 nM): 1163 pg/mL | IL-1RA (Ex 15 3000 nM): 88340 pg/mL | IL-1RA Fold vs DMSO (Ex 15 3000 nM): 25 fold | IL-1β (Ex 15 3000 nM): 5302 pg/mL | IL-1β Fold vs DMSO (Ex 15 3000 nM): 1767 fold | IL-6 Fold vs DMSO (Ex 15 3000 nM): 195 fold | IL-8 Fold vs DMSO (Ex 15 3000 nM): 4 fold | IL-10 Fold vs DMSO (Ex 15 3000 nM): 279 fold | IL-12p70 pg/ml (Ex 15 3000 nM): 381 pg/mL | IL-12p70 Fold vs DMSO (Ex 15 3000 nM): 127 fold | IL-18 Fold vs DMSO (Ex 15 3000 nM): 18 fold | IL-23 Fold vs DMSO (Ex 15 3000 nM): 19 fold | IP-10 pg/ml (Ex 15 3000 nM): 711 pg/mL | IP-10 Fold vs DMSO (Ex 15 3000 nM): 3 fold | MCP-1 pg/ml (Ex 15 3000 nM): 1646 pg/mL | MCP-1 Fold vs DMSO (Ex 15 3000 nM): 25 fold | MIP-1α (Ex 15 3000 nM): 21047 pg/mL | MIP-1α Fold vs DMSO (Ex 15 3000 nM): 421 fold | MIP-1β (Ex 15 3000 nM): 293183 pg/mL | MIP-1β Fold vs DMSO (Ex 15 3000 nM): 240 fold | MIP-3α (Ex 15 3000 nM): 2141 pg/mL | MIP-3α Fold vs DMSO (Ex 15 3000 nM): 82 fold | MMP-1 pg/ml (Ex 15 3000 nM): 311 pg/mL | MMP-1 Fold vs DMSO (Ex 15 3000 nM): 3 fold | TNF-α (Ex 15 3000 nM): 64062 pg/mL | TNF-α Fold vs DMSO (Ex 15 3000 nM): 3051 fold | GRO-α (Ex 15 10000 nM): 433 pg/mL | GRO-α Fold vs DMSO (Ex 15 10000 nM): 19 fold | Granzyme B (Ex 15 10000 nM): 644 pg/mL | Granzyme B Fold vs DMSO (Ex 15 10000 nM): 3 fold | I-TAC (Ex 15 10000 nM): 69 pg/mL | I-TAC Fold vs DMSO (Ex 15 10000 nM): 1 fold | IFN-α (Ex 15 10000 nM): 4 pg/mL | IFN-α Fold vs DMSO (Ex 15 10000 nM): 2 fold | IFN-γ (Ex 15 10000 nM): 1478 pg/mL | IFN-γ Fold vs DMSO (Ex 15 10000 nM): 59 fold | IL-6 pg/ml (Ex 15 10000 nM): 18836 pg/mL | IL-8 pg/ml (Ex 15 10000 nM): 1118 pg/mL | IL-10 pg/ml (Ex 15 10000 nM): 5167 pg/mL | IL-18 pg/ml (Ex 15 10000 nM): 218 pg/mL | IL-23 pg/ml (Ex 15 10000 nM): 965 pg/mL | IL-1RA (Ex 15 10000 nM): 90289 pg/mL | IL-1RA Fold vs DMSO (Ex 15 10000 nM): 25 fold | IL-1β (Ex 15 10000 nM): 6611 pg/mL | IL-1β Fold vs DMSO (Ex 15 10000 nM): 2204 fold | IL-6 Fold vs DMSO (Ex 15 10000 nM): 241 fold | IL-8 Fold vs DMSO (Ex 15 10000 nM): 4 fold | IL-10 Fold vs DMSO (Ex 15 10000 nM): 304 fold | IL-12p70 pg/ml (Ex 15 10000 nM): 113 pg/mL | IL-12p70 Fold vs DMSO (Ex 15 10000 nM): 38 fold | IL-18 Fold vs DMSO (Ex 15 10000 nM): 13 fold | IL-23 Fold vs DMSO (Ex 15 10000 nM): 16 fold | IP-10 pg/ml (Ex 15 10000 nM): 587 pg/mL | IP-10 Fold vs DMSO (Ex 15 10000 nM): 2 fold | MCP-1 pg/ml (Ex 15 10000 nM): 1796 pg/mL | MCP-1 Fold vs DMSO (Ex 15 10000 nM): 27 fold | MIP-1α (Ex 15 10000 nM): 24365 pg/mL | MIP-1α Fold vs DMSO (Ex 15 10000 nM): 487 fold | MIP-1β (Ex 15 10000 nM): 239694 pg/mL | MIP-1β Fold vs DMSO (Ex 15 10000 nM): 196 fold | MIP-3α (Ex 15 10000 nM): 1680 pg/mL | MIP-3α Fold vs DMSO (Ex 15 10000 nM): 65 fold | MMP-1 pg/ml (Ex 15 10000 nM): 740 pg/mL | MMP-1 Fold vs DMSO (Ex 15 10000 nM): 8 fold | TNF-α (Ex 15 10000 nM): 23017 pg/mL | TNF-α Fold vs DMSO (Ex 15 10000 nM): 1096 fold | Peak fold-activation relative to DMSO, IL-12p70 (Example 15, 1.0 nM to 10.0 μM): 518 fold | Peak fold-activation relative to DMSO, IL-18 (Example 15, 1.0 nM to 10.0 μM): 18 fold | Peak fold-activation relative to DMSO, TNF-α (Example 15, 1.0 nM to 10.0 μM): 3051 fold | Induction of IFN-ω, IL-2, IL-4, IL-5, IL-7, IL-15, IL-17A, IL-21, IL-27, or IL-29 compared to DMSO control (Example 15, 1.0 nM to 10.0 μM, did not induce at levels >2-fold): ≤ 2 fold
